US20140256015A1, “CAGED COMPOUND WHICH CAN BE PHOTOACTIVATED SELECTIVELY FOR CELL TYPES” (Toho University, priority 2013, published 2014)

Key:
[1] = UV spectrum (absorption wavelengths); format: physicochemical; settings: 10^−5 M KMOPS solution (0.1% DMSO, pH 7.3)
Description: UV spectra were measured for the 10^−5 M KMOPS solution (0.1% DMSO, pH 7.3) of Gal-Bhcmoc-propargyl and the 10^−5 M KMOPS solution (0.1% DMSO, pH 7.3) of Bhcmoc-propargyl.

[2] = Photocleaving by 405 nm photoirradiation, monitored by C18 reverse phase HPLC; format: physicochemical; settings: 10^−5 M KMOPS solution (0.1% DMSO, pH 7.3), irradiation 0 to 30 s (Bhcmoc-propargyl) or 0 to 300 s (Gal-Bhcmoc-propargyl)
From the text: The 10^−5 M KMOPS solution (0.1% DMSO, pH 7.3) of Gal-Bhcmoc-propargyl or Bhcmoc-propargyl was irradiated with light with 405 nm. The reaction progress was monitored over photoirradiation time by C18 reverse phase HPLC.

[3] = target: β-Gal (Escherichia coli, UniProt P00722); experiment: Conversion of Gal-Bhcmoc-propargyl to Bhcmoc-propargyl in the presence of β-Gal, followed by HPLC; format: biochemical; settings: 15 μM compound, β-Gal 0.25 ng/μL, 0.1 M phosphate buffer pH 7.3, 37° C., after 1 hour
Description: To 0.1 M phosphate buffer (pH 7.3) containing Gal-Bhcmoc-propargyl (final concentration of 15 μM), mercaptoethanol (0.11 M), and magnesium chloride (1 mM), β-Gal was added to a final concentration of 0.25 ng/μL. While the reaction solution was kept at 37° C., the reaction progress was followed by HPLC (see Table 2 for analytical conditions).

β-Gal, sequence (P00722 2-1024): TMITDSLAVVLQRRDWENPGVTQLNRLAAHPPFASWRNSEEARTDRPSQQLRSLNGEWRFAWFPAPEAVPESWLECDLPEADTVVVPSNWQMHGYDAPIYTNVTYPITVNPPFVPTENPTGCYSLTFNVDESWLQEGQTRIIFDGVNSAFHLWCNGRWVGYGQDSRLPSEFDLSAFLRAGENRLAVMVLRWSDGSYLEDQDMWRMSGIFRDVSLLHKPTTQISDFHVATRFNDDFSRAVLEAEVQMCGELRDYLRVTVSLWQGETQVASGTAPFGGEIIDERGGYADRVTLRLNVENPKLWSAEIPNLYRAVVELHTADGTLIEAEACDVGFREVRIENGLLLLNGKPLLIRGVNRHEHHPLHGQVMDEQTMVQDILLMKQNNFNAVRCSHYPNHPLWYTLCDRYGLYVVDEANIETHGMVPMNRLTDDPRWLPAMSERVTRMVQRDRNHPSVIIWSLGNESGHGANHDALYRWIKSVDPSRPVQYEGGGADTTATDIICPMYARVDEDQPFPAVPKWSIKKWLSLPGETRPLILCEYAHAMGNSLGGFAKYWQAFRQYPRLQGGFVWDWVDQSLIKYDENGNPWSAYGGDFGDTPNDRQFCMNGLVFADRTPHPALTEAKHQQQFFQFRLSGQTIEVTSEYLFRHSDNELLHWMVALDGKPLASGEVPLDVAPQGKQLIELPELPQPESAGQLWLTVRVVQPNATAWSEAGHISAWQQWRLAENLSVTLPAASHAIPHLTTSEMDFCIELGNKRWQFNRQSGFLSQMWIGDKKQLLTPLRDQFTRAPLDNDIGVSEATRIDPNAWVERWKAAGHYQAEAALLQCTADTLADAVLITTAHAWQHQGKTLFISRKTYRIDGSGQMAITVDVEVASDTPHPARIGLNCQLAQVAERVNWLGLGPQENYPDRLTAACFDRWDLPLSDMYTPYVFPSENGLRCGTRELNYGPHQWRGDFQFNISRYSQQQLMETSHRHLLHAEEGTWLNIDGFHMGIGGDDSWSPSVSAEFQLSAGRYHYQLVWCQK

SMILES | εmax [1] | λmax [1] | photocleaving (decrease of compound) on 405-nm photoirradiation [2] | conversion to Bhcmoc-propargyl (Bhc group) by β-Gal [3]
C#CCNC(=O)OCc1cc(=O)oc2cc(O)c(Br)cc12 [Bhcmoc-propargyl, (6-bromo-7-hydroxycoumarin-4-yl)methoxycarbonylpropargylamide] | 17400 M⁻¹ cm⁻¹ | 369 nm | decreases in Bhcmoc-propargyl and increases in the photocleaved product could be confirmed | 
C#CCNC(=O)OCc1cc(=O)oc2cc(O[C@@H]3O[C@H](CO)[C@H](O)[C@H](O)[C@H]3O)c(Br)cc12 [Gal-Bhcmoc-propargyl] |  |  | no decrease was confirmed | completely converted
